The assay has as its system HCV replicon. Briefly: Replicon based assay of HCV replication inhibition (NPT ELISA). The class given is cell-based, Hepatitis C virus. The following applies: Hepatitis C virus, replicon based assay of HCV replication inhibition; Table IV; read-out: Activity. The method in brief: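 Huh-7 cells carrying a bicistronic HCV replicon (neo, EMCV-IRES-driven NS3–NS5B) treated overnight after seeding with usually 6 concentrations, 10 to 0.03 micromolar, for three days at 37° C without G418. Replication read as NPT level by captured ELISA; matched-DMSO wells and interferon alpha as controls.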
On the technique in general: A replicon is a self-replicating genome or part of one, used to study replication in cells.
`CCCCCCCCOc1ccc(Nc2nc(-c3cnc(Cl)c(C)c3)cs2)cc1C(F)(F)F` [compound 842, 4-(6-chloro-5-methylpyridin-3-yl)-N-(3-(trifluoromethyl)-4-(octyloxy)phenyl)thiazol-2-amine]: the EC50 was less than 1000 nM.

As for `CCCCCCCCOc1ccc(Nc2nc(-c3ccc(CNC(=O)OC(C)(C)C)nc3)cs2)cc1C(F)(F)F` [compound 843, tert-butyl (5-(2-(3-(trifluoromethyl)-4-(octyloxy)phenylamino)thiazol-4-yl)pyridin-2-yl)methylcarbamate], the EC50 was less than 1000 nM.

As to `CCCCCCCCOc1ccc(Nc2nc(-c3ccc(CN)nc3)cs2)cc1C(F)(F)F` [compound 844, 4-(6-(aminomethyl)pyridin-3-yl)-N-(3-(trifluoromethyl)-4-(octyloxy)phenyl)thiazol-2-amine], the EC50 was less than 1000 nM.

For `Cc1ccc(CCCCOc2ccc(Nc3nc(-c4cccnc4)c(C)s3)cc2C(F)(F)F)cc1` [compound 845, N-(4-(4-p-tolylbutoxy)-3-(trifluoromethyl)phenyl)-5-methyl-4-(pyridin-3-yl)thiazol-2-amine], the EC50 is less than 1000 nM.

As to `Cc1sc(Nc2ccc(OCCCc3cccnc3)c(C(F)(F)F)c2)nc1-c1cccnc1` [compound 846, N-(4-(3-(pyridin-3-yl)propoxy)-3-(trifluoromethyl)phenyl)-5-methyl-4-(pyridin-3-yl)thiazol-2-amine], the EC50 is greater than 10000 nM.

As for `CCN(CCOc1ccc(Nc2nc(-c3cccnc3)cs2)cc1C(F)(F)F)c1ccccc1` [compound 847], the EC50 was less than 1000 nM.

For `FC(F)(F)c1cc(Nc2nc(-c3cccnc3)cs2)ccc1OCCOc1ccccc1` [compound 848, N-(4-(2-phenoxyethoxy)-3-(trifluoromethyl)phenyl)-4-(pyridin-3-yl)thiazol-2-amine], the EC50 is less than 1000 nM.

Regarding `CCCCCCCCOc1ccc(Nc2nc(-c3ccc(CC(=O)O)s3)cs2)cc1C(F)(F)F` [compound 849, 2-(5-(2-(3-(trifluoromethyl)-4-(octyloxy)phenylamino)thiazol-4-yl)thiophen-2-yl)acetic acid], the EC50 was less than 1000 nM.

Take `O=C(O)Cc1ccc(-c2csc(Nc3ccc(OCCCC4CCCC4)c(C(F)(F)F)c3)n2)s1` [compound 850, 2-(5-(2-(4-(3-cyclopentylpropoxy)-3-(trifluoromethyl)phenylamino)thiazol-4-yl)thiophen-2-yl)acetic acid]: the EC50 was less than 1000 nM.

For the compound `Cc1ccc(CCCCOc2ccc(Nc3nc(-c4ccc(CC(=O)O)s4)cs3)cc2C(F)(F)F)cc1` [compound 851, 2-(5-(2-(4-(4-p-tolylbutoxy)-3-(trifluoromethyl)phenylamino)thiazol-4-yl)thiophen-2-yl)acetic acid], the EC50 was less than 1000 nM.

Consider `Fc1cc(Nc2nc(-c3cccnc3)cs2)ccc1OCCCCc1cccs1` [compound 852, N-(4-(4-(thiophen-2-yl)butoxy)-3-fluorophenyl)-4-(pyridin-3-yl)thiazol-2-amine], for which the EC50 is less than 1000 nM.

Turning to `Fc1cc(Nc2nc(-c3cccnc3)cs2)ccc1OCCCc1ccccc1` [compound 853, N-(4-(3-phenylpropoxy)-3-fluorophenyl)-4-(pyridin-3-yl)thiazol-2-amine], the EC50 was less than 1000 nM.

For the compound `Cc1sc(Nc2ccc(OCCCCc3cccs3)c(F)c2)nc1-c1cccnc1` [compound 854, N-(4-(4-(thiophen-2-yl)butoxy)-3-fluorophenyl)-5-methyl-4-(pyridin-3-yl)thiazol-2-amine], the EC50 was 1000 to 10000 nM.

With `Cc1sc(Nc2ccc(OCCCc3ccccc3)c(F)c2)nc1-c1cccnc1` [compound 855, N-(4-(3-phenylpropoxy)-3-fluorophenyl)-5-methyl-4-(pyridin-3-yl)thiazol-2-amine], the EC50 was greater than 10000 nM.

Turning to `Cc1sc(Nc2ccc(OCC3CCCCC3)c(C(F)(F)F)c2)nc1-c1cccnc1` [compound 856, N-(4-(cyclohexylmethoxy)-3-(trifluoromethyl)phenyl)-5-methyl-4-(pyridin-3-yl)thiazol-2-amine], the EC50 was less than 1000 nM.

Take `CCCCCCCCOc1ccc(Nc2nc(-c3ccc(F)cc3)c(N)s2)cc1C(F)(F)F` [compound 857, N^2-(3-(trifluoromethyl)-4-(octyloxy)phenyl)-4-(4-fluorophenyl)thiazole-2,5-diamine]: the EC50 is less than 1000 nM.

For `Nc1sc(Nc2ccc(OCc3ccccc3)cc2)nc1-c1ccc(F)cc1` [compound 858, N^2-(4-(benzyloxy)phenyl)-4-(4-fluorophenyl)thiazole-2,5-diamine], the EC50 was 1000 to 10000 nM.

As to `CCCCCCCCOc1ccc(Nc2nc(C#N)c(N)s2)cc1C(F)(F)F` [compound 859, 2-(3-(trifluoromethyl)-4-(octyloxy)phenylamino)-5-aminothiazole-4-carbonitrile], the EC50 was less than 1000 nM.

Regarding `FC(F)(F)c1cc(Nc2nc(-c3cccnc3)cs2)ccc1OCCCc1ccco1` [compound 860, N-(4-(3-(furan-2-yl)propoxy)-3-(trifluoromethyl)phenyl)-4-(pyridin-3-yl)thiazol-2-amine], the EC50 is less than 1000 nM.

On to `Fc1cc(Nc2nc(-c3cccnc3)cs2)ccc1OCCCc1ccco1` [compound 861, N-(4-(3-(furan-2-yl)propoxy)-3-fluorophenyl)-4-(pyridin-3-yl)thiazol-2-amine], for which the EC50 was less than 1000 nM.

Consider `CCCCCCCCN(C)c1ccc(Nc2nc(-c3cccnc3)c(C)s2)cc1C(F)(F)F` [compound 862, 2-(trifluoromethyl)-N^1-methyl-N^4-(5-methyl-4-(pyridin-3-yl)thiazol-2-yl)-N^1-octylbenzene-1,4-diamine], for which the EC50 is less than 1000 nM.

In the case of `CCCCCCCN(C)Cc1ccc(Nc2nc(-c3cccnc3)c(C)s2)cc1C(F)(F)F` [compound 863], the EC50 was in the range of 1000 to 10000 nM.

Regarding `FC(F)(F)c1cc(Nc2nc(-c3cccnc3)cs2)ccc1OCCSc1ccccc1` [compound 864, N-(4-(2-(phenylthio)ethoxy)-3-(trifluoromethyl)phenyl)-4-(pyridin-3-yl)thiazol-2-amine], the EC50 is less than 1000 nM.

For the compound `CCCCCCCCOc1ccc(Nc2nc(-c3cnc(NC(C)=O)[nH]3)cs2)cc1C(F)(F)F` [compound 865, N-(5-(2-(3-(trifluoromethyl)-4-(octyloxy)phenylamino)thiazol-4-yl)-1H-imidazol-2-yl)acetamide], the EC50 was less than 1000 nM.

Take `COc1ncc(-c2csc(Nc3ccc4ccn(Cc5ccc(F)cc5)c4c3)n2)cn1` [compound 866, 1-(4-fluorobenzyl)-N-(4-(2-methoxypyrimidin-5-yl)thiazol-2-yl)-1H-indol-6-amine]: the EC50 was less than 1000 nM.

As to `Fc1ccc(Cn2ccc3ccc(Nc4nc(-c5cccnc5)cs4)cc32)cc1` [compound 867, 1-(4-fluorobenzyl)-N-(4-(pyridin-3-yl)thiazol-2-yl)-1H-indol-6-amine], the EC50 is less than 1000 nM.

Consider `Fc1ccc(Cn2ccc3ccc(Nc4nc(-c5ccc(F)cc5)cs4)cc32)cc1` [compound 868, 1-(4-fluorobenzyl)-N-(4-(4-fluorophenyl)thiazol-2-yl)-1H-indol-6-amine], for which the EC50 was less than 1000 nM.

With `CCCCCCCCNc1ccc(-c2nc(-c3csc(Nc4cccnc4)n3)cs2)cc1C(F)(F)F` [compound 869, N-(4-(2-(3-(trifluoromethyl)-4-(octylamino)phenyl)thiazol-4-yl)thiazol-2-yl)pyridin-3-amine], the EC50 was less than 1000 nM.

`Fc1ccc(Cn2ccc3cc(Nc4nc(-c5cccnc5)cs4)ccc32)cc1` [compound 870]: the EC50 was less than 1000 nM.

For the compound `Fc1ccc(Cn2ccc3cc(Nc4nc(-c5ccc(F)cc5)cs4)ccc32)cc1` [compound 871, 1-(4-fluorobenzyl)-N-(4-(4-fluorophenyl)thiazol-2-yl)-1H-indol-5-amine], the EC50 is greater than 10000 nM.

In the case of `CCC(C)c1ccc(Nc2nc(-c3cccnc3)cs2)cc1` (centres unmarked) [compound 872, N-(4-sec-butylphenyl)-4-(pyridin-3-yl)thiazol-2-amine], the EC50 lay in the range of 1000 to 10000 nM.

Consider `NC(=O)c1ccc(Nc2nc(-c3cccnc3)cs2)cc1` [compound 873, 4-(4-(pyridin-3-yl)thiazol-2-ylamino)benzamide], for which the EC50 is greater than 10000 nM.

Consider `FC(F)(F)c1cc(Nc2nc(-c3cccnc3)cs2)cc(C(F)(F)F)c1` [compound 874, N-(3,5-bis(trifluoromethyl)phenyl)-4-(pyridin-3-yl)thiazol-2-amine], for which the EC50 fell in the range of 1000 to 10000 nM.

For the compound `Fc1ccc(Nc2nc(-c3cccnc3)cs2)cc1C(F)(F)F` [compound 875, N-(4-fluoro-3-(trifluoromethyl)phenyl)-4-(pyridin-3-yl)thiazol-2-amine], the EC50 lay in the range of 1000 to 10000 nM.

Regarding `NC(=O)c1cccc(Nc2nc(-c3cccnc3)cs2)c1` [compound 876, 3-(4-(pyridin-3-yl)thiazol-2-ylamino)benzamide], the EC50 is greater than 10000 nM.

As to `Cc1cc(OC(F)(F)F)ccc1Nc1nc(-c2cccnc2)cs1` [compound 877, N-(2-methyl-4-(trifluoromethoxy)phenyl)-4-(pyridin-3-yl)thiazol-2-amine], the EC50 was greater than 10000 nM.

Turning to `CC(=O)Nc1ccc(Nc2nc(-c3cccnc3)cs2)cc1` [compound 878, N-(4-(4-(pyridin-3-yl)thiazol-2-ylamino)phenyl)acetamide], the EC50 is greater than 10000 nM.

Take `Cc1ccc(Nc2nc(-c3cccnc3)cs2)cc1C(F)(F)F` [compound 879, N-(3-(trifluoromethyl)-4-methylphenyl)-4-(pyridin-3-yl)thiazol-2-amine]: the EC50 is less than 1000 nM.

Regarding `N#Cc1ccc(Nc2nc(-c3cccnc3)cs2)cc1` [compound 880, 4-(4-(pyridin-3-yl)thiazol-2-ylamino)benzonitrile], the EC50 lay within 1000 to 10000 nM.

On to `FC(F)(F)c1cc(Nc2nc(-c3cccnc3)cs2)ccc1Cl` [compound 881, N-(4-chloro-3-(trifluoromethyl)phenyl)-4-(pyridin-3-yl)thiazol-2-amine], for which the EC50 was less than 1000 nM.

Turning to `N#Cc1ccc(Nc2nc(-c3cccnc3)cs2)cc1C(F)(F)F` [compound 882, 4-(4-(pyridin-3-yl)thiazol-2-ylamino)-2-(trifluoromethyl)benzonitrile], the EC50 is greater than 10000 nM.

The record behind these values is patent US8088806B2 (Achillion Pharmaceuticals, Inc., priority 2005, dated 2012).
